Data on 13 compounds can be found in publication PMC11131246, “Molecular determinants for brain targeting by peptides: a meta-analysis approach with experimental validation” (Fluids and Barriers of the CNS, 2024).

As usually defined, the tissue uptake is the share of the injected amount in each gram of the tissue.

A short description of series [1]: Analytical RP-HPLC retention time (used as indication of hydrophobicity). The class given is physicochemical. The settings on record: analytical reverse phase HPLC, UV chromatogram; free and CF-labelled peptides.
Series [2] is described as follows: Biodistribution of 67Ga-radiolabeled peptides. Set-up: species or system mouse. Conditions: female, CD1, mouse, in vivo, iv, 100 uCi, total radioactivity, Tissue distribution. The protocol:
All animal experiments were performed in compliance with national and EU legislation for good practices on laboratory animal science. The animals were housed in a temperature and humidity-controlled environment with a 12 h light/12 h dark schedule. Biodistribution of radiolabeled peptides was performed on 7 weeks old CD1 female mice.
Animals were intravenously injected into the tail vein with 100 µL of a 25 µM saline solution of the ^67Ga-peptide with a radioactivity around 100 µCi. The mice were euthanized by cervical dislocation at 2 min and 1 h after injection. The dose administered and the radioactivity in the euthanized animals was measured using a dose calibrator (Carpintec CRC-15W, Ramsey, USA). The difference between the radioactivity in the injected and the euthanized animals was assumed to be due to excretion. Brain and tissues of interest without previous perfusion were dissected, washed, and weighed, and their radioactivity was measured using a γ counter (Hidex AMG, Hidex, Turku, Finland). The uptake in the brain and tissues of interest was calculated and expressed as a percentage of injected radioactivity dose per gram of tissue (% ID/g).

Residues, ends and D or L forms follow the SMILES beside them. *: point of attachment. NODAGA = O=C(O)CN1CCN(CC(=O)O)CCN(C(CCC(=O)*)C(=O)O)CC1; CF = 5(6)-carboxyfluorescein

“CF-APWHLSSQYSRT-amide ({CF}-APWHLSSQYSRT-NH2) [CF-CTP, 5(6)-carboxyfluorescein-labelled CTP]”: the “HPLC tR” value in series [1] is on record as 8.45 min.

For “CF-YKEATSTFTNITYRGT-amide [CF-Peptide b3-1, 5(6)-carboxyfluorescein-labelled Peptide b3-1]”, the “HPLC tR” value in series [1] is listed as 8.63 min.

As to “CF-KYKGAIIGNIK-amide [CF-A, 5(6)-carboxyfluorescein-labelled A]”, in series [1], the “HPLC tR” value amounted to 7.05 min.

For the compound `CC(C)C[C@H](NC(=O)[C@H](Cc1c[nH]c2ccccc12)NC(=O)[C@H](Cc1ccccc1)NC(=O)[C@H](CCC(N)=O)NC(=O)[C@H](C)NC(=O)[C@H](CO)NC(=O)[C@H](CC(=O)O)NC(=O)[C@@H]1CCCN1C(=O)[C@H](CCCNC(=N)N)NC(=O)[C@H](CC(N)=O)NC(=O)CCC(C(=O)O)N1CCN(CC(=O)O)CCN(CC(=O)O)CC1)C(=O)N[C@@H](Cc1c[nH]cn1)C(=O)N[C@@H](Cc1c[nH]cn1)C(N)=O` (stereo partly shown) [67Ga-BBBpS_9, metal not drawn] ({NODAGA}-NRPDSAQFWLHH-NH2), the tissue uptake at 2 min in series [2] (Blood) was found to be 11.6 ± 1.5 %ID/g; in series [2] (Bone) it was 3.4 ± 0.3 %ID/g; in series [2] (Brain (brain uptake)), 0.61 ± 0.11 %ID/g; in series [2] (Heart), 3.3 ± 0.1 %ID/g; in series [2] (Intestine) it was 1.9 ± 0.2 %ID/g; in series [2] (Kidney), 30 ± 3.7 %ID/g. Also, the tissue uptake at 2 min in series [2] (Liver) is 4.7 ± 0.4 %ID/g; in series [2] (Lung) it was 5.4 ± 0.6 %ID/g; in series [2] (Muscle) it was 2.6 ± 0.3 %ID/g; in series [2] (Spleen), 2.6 ± 0.3 %ID/g; in series [2] (Stomach), 1.5 ± 0.2 %ID/g. In addition, the tissue uptake at 1 h in series [2] (Blood) amounted to 0.8 ± 0.4 %ID/g; in series [2] (Bone), 0.5 ± 0.1 %ID/g; in series [2] (Brain (brain uptake)) it was 0.05 ± 0.01 %ID/g; in series [2] (Heart) it was 0.3 %ID/g; in series [2] (Intestine), 0.2 %ID/g; in series [2] (Kidney), 3.1 ± 0.3 %ID/g. In addition, the tissue uptake at 1 h stood at 2.6 ± 0.3 %ID/g in series [2] (Liver); 0.7 ± 0.1 %ID/g in series [2] (Lung); 0.2 ± 0.1 %ID/g in series [2] (Muscle); 0.9 ± 0.2 %ID/g in series [2] (Spleen); 0.3 ± 0.1 %ID/g in series [2] (Stomach).

For the compound “CF-KYRSGAITIGY-amide [CF-B, 5(6)-carboxyfluorescein-labelled B]”, the “HPLC tR” value in series [1] was 7.62 min.

For the compound `CC[C@H](C)[C@H](NC(=O)[C@H](C)NC(=O)CNC(=O)[C@H](CO)NC(=O)[C@H](CCCNC(=N)N)NC(=O)[C@H](Cc1ccc(O)cc1)NC(=O)[C@H](CCCCN)NC(=O)CCC(C(=O)O)N1CCN(CC(=O)O)CCN(CC(=O)O)CC1)C(=O)N[C@H](C(=O)N[C@H](C(=O)NCC(=O)N[C@@H](Cc1ccc(O)cc1)C(N)=O)[C@@H](C)CC)[C@@H](C)O` (stereo partly shown) [67Ga-BBBpS_2, metal not drawn] ({NODAGA}-KYRSGAITIGY-NH2), the tissue uptake at 2 min came to 13.4 ± 3.8 %ID/g in series [2] (Blood); 3.1 ± 0.1 %ID/g in series [2] (Bone); 0.52 ± 0.23 %ID/g in series [2] (Brain (brain uptake)); 3.1 ± 0.7 %ID/g in series [2] (Heart); 1.5 ± 0.2 %ID/g in series [2] (Intestine); 18.1 ± 2.1 %ID/g in series [2] (Kidney). In addition, the tissue uptake at 2 min in series [2] (Liver) is 3.5 ± 1.2 %ID/g; in series [2] (Lung), 6 ± 1.2 %ID/g; in series [2] (Muscle) it was 2 ± 0.4 %ID/g; in series [2] (Spleen), 1.9 ± 0.6 %ID/g; in series [2] (Stomach), 1 ± 0.1 %ID/g. Moreover, the tissue uptake at 1 h stood at 1.4 ± 0.9 %ID/g in series [2] (Blood); 0.8 ± 0.5 %ID/g in series [2] (Bone); 0.09 ± 0.03 %ID/g in series [2] (Brain (brain uptake)); 0.8 ± 0.1 %ID/g in series [2] (Heart); 0.4 %ID/g in series [2] (Intestine); 1.4 ± 0.6 %ID/g in series [2] (Kidney). The tissue uptake at 1 h in series [2] (Liver) was 0.6 ± 0.2 %ID/g; in series [2] (Lung), 1.7 ± 0.4 %ID/g; in series [2] (Muscle), 0.7 ± 0.1 %ID/g; in series [2] (Spleen), 0.5 ± 0.2 %ID/g; in series [2] (Stomach), 0.2 ± 0.1 %ID/g.

Regarding “CF-LKTLTETLKELTKTLTEL-amide [CF-KLA13, 5(6)-carboxyfluorescein-labelled KLA13]”, in series [1], the “HPLC tR” value came to 13.51 min.

Consider “CF-YTQDFNKFHTFPQTAIGVGAP-amide [CF-hCR(12–32), 5(6)-carboxyfluorescein-labelled hCR(12–32)]”, for which the “HPLC tR” value in series [1] was 8.79 min.

On to `CC[C@H](C)[C@H](NC(=O)[C@H](Cc1c[nH]cn1)NC(=O)CCC(C(=O)O)N1CCN(CC(=O)O)CCN(CC(=O)O)CC1)C(=O)N[C@@H](CCC(N)=O)C(=O)N[C@@H](CC(C)C)C(=O)N[C@@H](CO)C(=O)N1CCC[C@H]1C(=O)N[C@@H](Cc1ccccc1)C(=O)N[C@@H](CO)C(=O)N[C@@H](CCC(N)=O)C(=O)N[C@@H](CO)C(=O)N[C@@H](Cc1c[nH]c2ccccc12)C(=O)N[C@@H](CCCNC(=N)N)C(N)=O` (stereo partly shown) [67Ga-BBBpS_5, metal not drawn] ({NODAGA}-HIQLSPFSQSWR-NH2), for which the tissue uptake at 2 min came out at 10.7 ± 2.1 %ID/g in series [2] (Blood); 3.8 ± 0.5 %ID/g in series [2] (Bone); 0.74 ± 0.01 %ID/g in series [2] (Brain (brain uptake)); 3.8 ± 0.8 %ID/g in series [2] (Heart); 2.2 ± 0.2 %ID/g in series [2] (Intestine); 22 ± 3.6 %ID/g in series [2] (Kidney). The tissue uptake at 2 min in series [2] (Liver) turned out to be 5.2 ± 1.1 %ID/g; in series [2] (Lung), 7.8 ± 2.8 %ID/g; in series [2] (Muscle), 3.1 ± 0.8 %ID/g; in series [2] (Spleen), 2.2 ± 0.1 %ID/g; in series [2] (Stomach) it was 2.6 %ID/g. The tissue uptake at 1 h in series [2] (Blood) was determined as 1.2 ± 0.3 %ID/g; in series [2] (Bone), 0.6 ± 0.4 %ID/g; in series [2] (Brain (brain uptake)), 0.05 ± 0.01 %ID/g; in series [2] (Heart), 0.5 %ID/g; in series [2] (Intestine), 0.4 ± 0.2 %ID/g; in series [2] (Kidney) it was 1.1 ± 0.6 %ID/g. The tissue uptake at 1 h in series [2] (Liver) is 1 ± 0.4 %ID/g; in series [2] (Lung), 1.2 ± 0.2 %ID/g; in series [2] (Muscle), 0.5 ± 0.2 %ID/g; in series [2] (Spleen) it was 0.3 ± 0.1 %ID/g; in series [2] (Stomach) it was 0.3 ± 0.4 %ID/g.

Turning to `CC[C@H](C)[C@H](NC(=O)[C@H](C)NC(=O)CNC(=O)[C@H](CCCCN)NC(=O)[C@H](Cc1ccc(O)cc1)NC(=O)[C@H](CCCCN)NC(=O)CCC(C(=O)O)N1CCN(CC(=O)O)CCN(CC(=O)O)CC1)C(=O)N[C@H](C(=O)NCC(=O)N[C@@H](CC(N)=O)C(=O)N[C@H](C(=O)N[C@@H](CCCCN)C(N)=O)[C@@H](C)CC)[C@@H](C)CC` (stereo partly shown) [67Ga-BBBpS_1, metal not drawn] ({NODAGA}-KYKGAIIGNIK-NH2), the tissue uptake at 2 min was 12.6 ± 2.1 %ID/g in series [2] (Blood); 3.4 ± 0.3 %ID/g in series [2] (Bone); 0.66 ± 0.16 %ID/g in series [2] (Brain (brain uptake)); 3.4 ± 1 %ID/g in series [2] (Heart); 1.7 ± 0.3 %ID/g in series [2] (Intestine); 33.8 ± 3.8 %ID/g in series [2] (Kidney). For the same compound, the tissue uptake at 2 min was 4.1 ± 0.8 %ID/g in series [2] (Liver); 6.1 ± 0.7 %ID/g in series [2] (Lung); 2.4 ± 0.2 %ID/g in series [2] (Muscle); 2 ± 0.2 %ID/g in series [2] (Spleen); 1.4 ± 0.5 %ID/g in series [2] (Stomach). The tissue uptake at 1 h came to 0.5 ± 0.3 %ID/g in series [2] (Blood); 0.3 ± 0.1 %ID/g in series [2] (Bone); 0.04 ± 0.02 %ID/g in series [2] (Brain (brain uptake)); 0.3 ± 0.1 %ID/g in series [2] (Heart); 0.2 ± 0.1 %ID/g in series [2] (Intestine); 2.4 ± 1.8 %ID/g in series [2] (Kidney). Moreover, the tissue uptake at 1 h in series [2] (Liver) was found to be 0.3 ± 0.2 %ID/g; in series [2] (Lung), 2.5 ± 0.3 %ID/g; in series [2] (Muscle), 0.3 ± 0.1 %ID/g; in series [2] (Spleen), 0.2 ± 0.1 %ID/g; in series [2] (Stomach), 0.1 %ID/g.

Take “CF-RPKPQQFFGLM-amide [CF-SPA, 5(6)-carboxyfluorescein-labelled SPA]”: the “HPLC tR” value in series [1] is reported as 9.25 min.

In the case of “CF-HIQLSPFSQSWR-amide [CF-HAP-2, 5(6)-carboxyfluorescein-labelled HAP-2]”, in series [1], the “HPLC tR” value amounted to 9.50 min.

For the compound “CF-KWCFRVCYRGICYRRCR-amide [CF-TI, 5(6)-carboxyfluorescein-labelled TI]”, in series [1], the “HPLC tR” value came out at 8.11 min.
